Reference: ChEMBL document CHEMBL3352757, “Mono- and di-halogenated histamine, histidine and carnosine derivatives are potent carbonic anhydrase I, II, VII, XII and XIV activators” (Bioorg Med Chem, 2014)

Assays:
[1] = biological target: Carbonic anhydrase 1 (Homo sapiens) (UniProt P00915); assay: Activation of […] human carbonic anhydrase-1 incubated for 15 mins prior to testing by stopped-flow CO2 hydrase assay
[2] = biological target: Carbonic anhydrase 2 (Homo sapiens) (UniProt P00918); assay: Activation of […] human carbonic anhydrase-2 incubated for 15 mins prior to testing by stopped-flow CO2 hydrase assay
[3] = biological target: Carbonic anhydrase 7 (Homo sapiens) (UniProt P43166); assay: Activation of […] human carbonic anhydrase-7 incubated for 15 mins prior to testing by stopped-flow CO2 hydrase assay
Carbonic anhydrase 7 (Homo sapiens), sequence (P43166 whole entry): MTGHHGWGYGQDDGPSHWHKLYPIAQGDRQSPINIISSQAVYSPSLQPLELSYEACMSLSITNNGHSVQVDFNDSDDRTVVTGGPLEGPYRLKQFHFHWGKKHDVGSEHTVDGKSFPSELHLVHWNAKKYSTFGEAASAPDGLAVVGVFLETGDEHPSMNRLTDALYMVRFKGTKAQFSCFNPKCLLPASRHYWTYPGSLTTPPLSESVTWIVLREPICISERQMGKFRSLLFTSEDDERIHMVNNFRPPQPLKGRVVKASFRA

[4] = biological target: Carbonic anhydrase 12 (Homo sapiens) (UniProt O43570); assay: Activation of transmembrane human carbonic anhydrase-12 incubated for 15 mins prior to testing by stopped-flow CO2 hydrase assay
Carbonic anhydrase 12 (Homo sapiens), sequence (O43570 whole entry): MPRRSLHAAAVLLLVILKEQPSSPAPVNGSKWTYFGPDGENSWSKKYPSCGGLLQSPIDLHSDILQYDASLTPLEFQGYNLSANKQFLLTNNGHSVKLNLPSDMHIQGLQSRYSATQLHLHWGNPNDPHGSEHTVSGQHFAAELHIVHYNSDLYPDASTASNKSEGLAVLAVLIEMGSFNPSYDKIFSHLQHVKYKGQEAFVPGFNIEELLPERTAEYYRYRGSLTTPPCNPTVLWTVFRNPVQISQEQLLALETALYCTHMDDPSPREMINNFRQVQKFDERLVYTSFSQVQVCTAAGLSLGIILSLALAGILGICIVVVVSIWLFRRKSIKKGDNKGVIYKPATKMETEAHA

[5] = biological target: Carbonic anhydrase 14 (Homo sapiens) (UniProt Q9ULX7); assay: Activation of transmembrane human carbonic anhydrase-14 incubated for 15 mins prior to testing by stopped-flow CO2 hydrase assay
Carbonic anhydrase 14 (Homo sapiens), sequence (Q9ULX7 whole entry): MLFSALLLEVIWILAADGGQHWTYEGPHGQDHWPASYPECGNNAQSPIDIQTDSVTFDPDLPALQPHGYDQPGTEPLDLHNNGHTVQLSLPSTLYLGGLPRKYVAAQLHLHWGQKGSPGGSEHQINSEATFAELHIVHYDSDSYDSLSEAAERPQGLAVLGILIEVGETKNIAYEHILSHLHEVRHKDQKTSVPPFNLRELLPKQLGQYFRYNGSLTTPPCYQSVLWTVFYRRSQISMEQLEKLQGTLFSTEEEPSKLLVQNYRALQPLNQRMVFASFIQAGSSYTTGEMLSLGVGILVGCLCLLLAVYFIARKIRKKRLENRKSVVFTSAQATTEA

Carbonic anhydrase 1 (Homo sapiens), sequence (P00915 2-261 limits assumed): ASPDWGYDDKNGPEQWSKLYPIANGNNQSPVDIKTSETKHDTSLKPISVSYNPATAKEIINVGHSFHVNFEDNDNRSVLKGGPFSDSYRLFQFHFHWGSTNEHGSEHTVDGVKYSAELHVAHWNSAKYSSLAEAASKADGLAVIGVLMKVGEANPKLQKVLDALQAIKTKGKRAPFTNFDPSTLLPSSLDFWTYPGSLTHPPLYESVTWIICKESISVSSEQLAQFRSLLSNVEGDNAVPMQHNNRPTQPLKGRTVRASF

Row | SMILES | KA [1] [µM] | KA [2] [µM] | KA [3] [µM] | KA [4] [µM] | KA [5] [µM]
1 | NCCc1nc[nH]c1I | 0.0009 | 0.065 | 7.6 | 0.9 | 7.1
2 | COC(=O)[C@@H](N)Cc1nc(I)[nH]c1I | 0.96 | 1.12 | 3.6 | 10.9 | 24.3
3 | COC(=O)[C@@H](N)Cc1nc[nH]c1Br | 13.6 | 10.4 | 12.3 | 1.01 | 5.2
4 | COC(=O)[C@H](Cc1nc[nH]c1Br)NC(=O)CCN | 2.1 | 1.78 | 1.02 | 30.7 | 28.4
5 | COC(=O)[C@@H](N)Cc1c[nH]cn1 | 0.02 | 10.4 | 0.88 | 0.91 | 0.93
6 | COC(=O)[C@H](Cc1nc(Br)[nH]c1Br)NC(=O)CCN | 30.7 | 4.1 | 0.0081 | 1.84 | 18.9
7 | NCCc1nc(I)[nH]c1I | 0.0007 | 0.001 | 1.39 | 34.6 | 15.5
8 | NCCc1nc[nH]c1Cl | 0.021 | 0.115 | 15.3 | 12.1 | 38.7
9 | COC(=O)[C@H](Cc1nc(Cl)[nH]c1Cl)NC(=O)OC(C)(C)C | 2.45 | 40.3 | 50.7 | 25.3 | 1.4
10 | COC(=O)[C@@H](N)Cc1nc(Cl)[nH]c1Cl | 31.2 | 10.5 | 24.9 | 27.1 | 20.6

Continued, values first:

Row | KA [1] [µM] | KA [2] [µM] | KA [3] [µM] | KA [4] [µM] | KA [5] [µM] | SMILES
11 | 5.4 | 50.2 | 24.9 | 18.8 | 45.2 | CC(C)(C)OC(=O)NCCc1nc[nH]c1Cl
12 | 29.3 | 13.6 | 21.5 | 44.3 | 30.9 | CC(C)(C)OC(=O)NCCc1nc[nH]c1I
13 | 2.6 | 0.97 | 5.2 | 24.9 | 36.5 | COC(=O)[C@H](Cc1nc[nH]c1Br)NC(=O)CCNC(=O)OC(C)(C)C
14 | 10.1 | 18.6 | 0.12 | 9.7 | 33.5 | COC(=O)[C@H](Cc1nc(Cl)[nH]c1Cl)NC(=O)CCNC(=O)OC(C)(C)C
15 | 0.0009 | 0.012 | 38.5 | 6.1 | 13.5 | COC(=O)[C@H](Cc1nc[nH]c1I)NC(=O)OC(C)(C)C
16 | 4.3 | 5.2 | 0.81 | 28.7 | 24.6 | COC(=O)[C@H](Cc1nc[nH]c1I)NC(=O)CCNC(=O)OC(C)(C)C
17 | 7.1 | 44.5 | 10.4 | 52.8 | 34.7 | CC(C)(C)OC(=O)NCCc1nc[nH]c1Br
18 | 21.5 | 34.8 | 4 | 31.6 | 40.8 | COC(=O)[C@H](Cc1nc(Br)[nH]c1Br)NC(=O)CCNC(=O)OC(C)(C)C
19 | 34.3 | 48.5 | 12.1 | 2.5 | 7.9 | COC(=O)[C@H](Cc1nc[nH]c1Cl)NC(=O)CCNC(=O)OC(C)(C)C
